Laboratory results published in PMC12607499, “Prokaryotic Expression and Binding Characteristics of Odor-Binding Protein GqinOBP10 in Gynaephora qinghaiensis” (International Journal of Molecular Sciences, 2025).

target: T1, GqinOBP10; assay: fluorescence competitive binding with 1-NPN probe; design: species or system Gynaephora qinghaiensis; settings: 2 µM protein, 50 mM Tris-HCl pH 7.4; displacement of 1-NPN
T1 construct: gene OBP10; full length 134 residues (405 bp); signal peptide removed; vector pCZN1, E. coli BL21 (DE3); His tag cut off with enterokinase; about 15 kDa
From the text: fluorescence competitive binding with 1-NPN probe on GqinOBP10

| SMILES | IC50 | Ki |
| --- | --- | --- |
| OCCC(O)CO (stereo not shown) [1,2,4-butanetriol] | 11.7 µM | 11.6 µM |
| O=C1CCC(=O)CC1 [1,4-Cyclohexanedione] | 13.1 µM | 13 µM |
| NC1(C(=O)O)CC1 [1-Aminocyclopropane-1-carboxylic acid] | 18.7 µM | 18.6 µM |
| OC1CCc2ccccc21 (stereo not shown) [1-Indanol] | 12 µM | 11.9 µM |
| NCC(O)c1ccccc1 (stereo not shown) [2-Amino-1-phenylethanol] | 4.51 µM | 4.48 µM |
| CCCCCCCC/C=C\CCCCCCCC(=O)OC(CO)CO [2-Oleoylglycerol] | 6 µM | 5.96 µM |
| CC(CN)C(=O)O (stereo not shown) [3-Aminoisobutanoic acid] | 15 µM | 14.9 µM |
| N#CC[C@H](N)C(=O)O [β-cyano-L-alanine] | 12.3 µM | 12.2 µM |
